Measurements taken from paper PMC3389674, “Comparison of Soluble Guanylate Cyclase Stimulators and Activators in Models of Cardiovascular Disease Associated with Oxidative Stress” (Frontiers in Pharmacology, 2012).
Like-named read-outs stand apart in the source and are kept apart here.

Assays:
sGC = molecular target: T1, sGC (Rattus norvegicus, UniProt P20595); test: P-VASP formation in rat aortic smooth muscle cells; assay type: cell-based
T1 construct: in rat aortic smooth muscle cells; endogenous in cells; host or cells: primary rat aortic smooth muscle cells
T1 sequence (P20595 1-619): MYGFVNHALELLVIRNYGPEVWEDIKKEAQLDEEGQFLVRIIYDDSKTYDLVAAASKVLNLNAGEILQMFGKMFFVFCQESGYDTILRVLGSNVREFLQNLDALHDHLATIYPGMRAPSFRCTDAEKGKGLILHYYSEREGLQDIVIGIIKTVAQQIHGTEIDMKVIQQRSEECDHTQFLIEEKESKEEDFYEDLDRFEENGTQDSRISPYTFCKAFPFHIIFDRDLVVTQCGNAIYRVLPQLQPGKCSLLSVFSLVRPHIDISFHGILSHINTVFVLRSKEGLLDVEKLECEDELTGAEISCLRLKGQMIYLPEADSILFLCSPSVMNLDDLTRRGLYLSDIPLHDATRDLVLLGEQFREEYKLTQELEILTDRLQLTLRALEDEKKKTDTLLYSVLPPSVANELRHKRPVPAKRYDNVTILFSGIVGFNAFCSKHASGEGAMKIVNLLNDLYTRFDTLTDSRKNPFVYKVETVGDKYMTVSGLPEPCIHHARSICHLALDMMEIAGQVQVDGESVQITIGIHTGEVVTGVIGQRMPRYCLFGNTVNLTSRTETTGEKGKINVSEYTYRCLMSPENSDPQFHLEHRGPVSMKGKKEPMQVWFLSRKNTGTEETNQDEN
T1 sequence (P19686 1-690 partner): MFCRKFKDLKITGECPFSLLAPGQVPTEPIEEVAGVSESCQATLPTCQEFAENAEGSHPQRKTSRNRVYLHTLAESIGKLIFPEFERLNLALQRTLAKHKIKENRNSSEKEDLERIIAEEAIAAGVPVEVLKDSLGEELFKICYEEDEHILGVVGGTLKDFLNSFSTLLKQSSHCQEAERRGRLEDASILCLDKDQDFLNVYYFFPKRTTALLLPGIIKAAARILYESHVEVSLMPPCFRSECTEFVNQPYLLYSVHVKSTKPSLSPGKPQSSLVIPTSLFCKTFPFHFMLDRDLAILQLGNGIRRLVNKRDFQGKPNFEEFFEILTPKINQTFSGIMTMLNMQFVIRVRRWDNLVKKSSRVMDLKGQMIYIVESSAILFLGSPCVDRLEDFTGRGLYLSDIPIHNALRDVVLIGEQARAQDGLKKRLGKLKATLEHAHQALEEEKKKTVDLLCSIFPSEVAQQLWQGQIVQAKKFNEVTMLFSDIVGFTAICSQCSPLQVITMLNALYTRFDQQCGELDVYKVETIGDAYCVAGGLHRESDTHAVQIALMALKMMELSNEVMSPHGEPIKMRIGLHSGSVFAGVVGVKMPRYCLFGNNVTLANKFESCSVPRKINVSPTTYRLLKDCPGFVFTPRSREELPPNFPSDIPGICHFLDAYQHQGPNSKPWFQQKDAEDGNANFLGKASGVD
Procedure: The potency, efficacy, and mechanism of action of the sGC modulators GSK2181236A and BAY 60-4552 were assessed by measuring phosphorylation of the protein kinase G (PKG) substrate […] (VASP) in rat aortic smooth muscle cells. […] Dimethylsulfoxide (DMSO) vehicle or varying concentrations of GSK2181236A (2 pM to 1 μM) or BAY 60-4552 (15 nM to 100 μM) were then added. Following a 30 min incubation at 37°C, media was aspirated and the cells were rinsed with phosphate-buffered saline (PBS) and fixed with 4% formaldehyde in PBS by incubating at room temperature for 20 min. Cells were then washed with PBS and permeabilized for 10 min using 0.1% triton X-100 in PBS. Following PBS rinsing, the cells were blocked for 90 min at room temperature with Odyssey Blocking Buffer (LI-COR, Cambridge, UK). The buffer was aspirated and the cells were treated overnight at 4°C with primary antibody [(pSer^239) VASP, rabbit polyclonal Ab, Cell Signaling Technology, Danvers, MA, USA] diluted 1:500 in Odyssey Blocking Buffer. Following three washes with 0.05% Tween 20, the cells were treated for 1 h at room temperature with secondary antibody (IRDye® 800CW Donkey Anti-Rabbit IgG, LI-COR) diluted 1:2500 in Odyssey Blocking Buffer with 0.05% Tween 20. Following two washes with PBS, infrared fluorescence was measured using an Odyssey Infrared Imaging System (LI-COR).

SHR-SP isolated aorta = test: direct vasodilatory effects in aorta isolated from ND and HSFD SHR-SP; parameters: species or system rat; conditions: for EC50: read-out: EC50, direct vasodilation
Procedure: In separate studies, endothelial function was assessed following chronic (7 week) BAY 60-4552 or GSK2181236A treatment in SHR-SP on HSFD. SHR-SP fed either normal or HSFD served as controls. Rats were anesthetized and thoracic aorta were isolated and treated with KCl and phenylephrine as described above. Cumulative concentration-response curves to phenylephrine were obtained by adding 0.5 log unit increments (1 nM to 3 μM). Following several washes with KHB, each vessel was contracted to equilibrium with 0.3 μM phenylephrine and tone was reversed by adding cumulative amounts of carbachol at 0.5 log unit intervals (10 nM to 30 μM). Following several KHB washes, the tissues were again contracted to equilibrium with 0.3 μM phenylephrine and tone was reversed by adding cumulative amounts of SNP at 0.5 log unit intervals (0.1 nM to 3 μM). In separate tissues from both the normal and HSFD SHR-SP control groups, the direct vasodilatory effects of BAY 60-4552 and GSK2181236A were investigated. Contractile tone induced by 0.3 μM phenylephrine was reversed by adding cumulative concentrations of BAY 60-4552 or GSK2181236A to the tissue baths at log increments (0.1 nM to 10 μM).

Structure (SMILES)	EC50 (sGC; Control (no ODQ)) [nM]	Emax, P-VASP formation (sGC; Control (no ODQ)) [% DMSO]	leftward-shift of P-VASP concentration-response curve by ODQ (sGC; ODQ 10 μM vs control) [fold]	Emax (sGC; ODQ 10 μM vs control, read-out: augmentation of P-VASP maximal response by ODQ) [%]	EC50 (sGC; ODQ (10 μM) pre-treatment) [nM]	Emax, P-VASP formation (sGC; ODQ (10 μM) pre-treatment) [% DMSO]	EC50 (SHR-SP isolated aorta; Rattus norvegicus, aorta from HSFD SHR-SP) [nM]	EC50 (SHR-SP isolated aorta; Rattus norvegicus, aorta from ND SHR-SP) [nM]	Emax, direct vasodilation (SHR-SP isolated aorta; aorta from HSFD SHR-SP) [% vasodilation]	Emax, direct vasodilation (SHR-SP isolated aorta; aorta from ND SHR-SP) [% vasodilation]	rightward-shift of P-VASP concentration-response curve by ODQ (sGC; ODQ 10 μM vs control) [fold]	suppression of P-VASP maximal response by ODQ (trend) (sGC; ODQ 10 μM vs control) [%]	EC50 (SHR-SP isolated aorta; aorta from HSFD SHR-SP) [nM]	EC50 (SHR-SP isolated aorta; aorta from ND SHR-SP) [nM]
Cc1cc(-c2ccc(OC(F)(F)F)cc2)ccc1COc1ccccc1-c1cccc(-n2ncc(C(=O)O)c2C(F)(F)F)n1 [GSK2181236A, 1-(6-{2-[({3-methyl-4′-[(trifluoromethyl)oxy]-4-biphenylyl}methyl)oxy]phenyl}-2-pyridinyl)-5-(trifluoromethyl)-1H-pyrazole-4-carboxylic acid]	12.7 ± 4.7	379 ± 26	4.7	32	2.7 ± 0.6	502 ± 26	321 ± 168	270 ± 70	110 ± 7	110 ± 3	–	–	–	–
COC(=O)Nc1c(N)nc(-c2nn(Cc3ccccc3F)c3ncccc23)nc1N [BAY 60-4552]	353 ± 89	388 ± 39	–	–	3260	362 ± 24	–	–	111 ± 2	110 ± 2	9.8	7	54 ± 14	75 ± 16
